Experimental data published in US9238039B2, “Pyrazolo[1,5-A]pyrimidines for antiviral treatment” (Gilead Sciences, Inc., priority 2010, dated 2016).

System: RSV strain A2
Test: RSV antiviral cytoprotection assay in Hep2 cells (96-well and 384-well format, Cell TiterGlo read-out)
Assay type: cell-based, Respiratory Syncytial Virus (RSV)
Conditions: human respiratory syncytial virus; for inhibition at 0.5 µM: HEp-2, 0.5 uM; for inhibition at 0.5 µM / inhibition at 1 µM: RSV-induced cytopathic effect in Hep2 cells, calculated from fitted dose response curve, normalized to 0% and 100%; for EC50: HEp-2, RSV-induced cytopathic effects, Hep2 cells, class symbols; for inhibition at 1 µM: HEp-2, 1 uM

SMILES	EC50	inhibition at 0.5 µM	inhibition at 1 µM
CS(=O)(=O)Nc1ccc(Cl)cc1C(=O)N1CCCC[C@H]1c1cc2nc(N3CC(O)C3)ccn2n1 [Compound 49]	0.1 to 100 nM	98%	
CS(=O)(=O)Nc1ccc(Cl)cc1C(=O)N1CCCC[C@H]1c1cc2nc(N3CCC3)cc(N3CC(N)C3)n2n1 [Compound 133]	0.1 to 100 nM	96%	
Cc1cn2nc([C@@H]3CCCCN3C(=O)c3cnn(C4CCCC4)c3)cc2nc1N1CC[C@H](N)C1 [Compound 366]	0.1 to 100 nM	100%	
CS(=O)(=O)Nc1ccc(Cl)cc1C(=O)N1CCCC[C@H]1c1cc2nc(N3CCC3)cc(N3CCOCC3)n2n1 [Compound 67]	0.1 to 100 nM	100%	
Cc1cn2nc([C@@H]3CCCCN3C(=O)c3ccco3)cc2nc1N1CC[C@H](N)C1 [Compound 258]	0.1 to 100 nM	100%	
Cc1cn2nc([C@@H]3CCCCN3C(=O)c3cccn3C)cc2nc1N1CC[C@H](N)C1 [Compound 261]	101 to 1000 nM	81%	
Cc1cn2nc([C@@H]3CCCCN3C(=O)c3cc(Cl)ccc3NS(C)(=O)=O)cc2nc1N1CCC[C@H]1CN [Compound 203]	101 to 1000 nM	86%	
Cc1cc(C(=O)N2CCCC[C@H]2c2cc3nc(N4CC[C@H](N)C4)c(C)cn3n2)c(C(F)(F)F)o1 [Compound 399]	0.1 to 100 nM	100%	
CC(=O)Nc1c(Cl)ccc(Cl)c1C(=O)N1CCCC[C@H]1c1cc2[nH]c(C)c(C)c(=O)n2n1 [Compound 245]	0.1 to 100 nM	92%	
Cc1cn2nc([C@@H]3CC[C@H](C)CN3C(=O)c3cc(Cl)ccc3NS(C)(=O)=O)cc2nc1N1CC(O)C1 [Compound 135]	0.1 to 100 nM	100%	
Cc1cn2nc([C@@H]3CCCCN3C(=O)c3ccc4ccn(C)c4c3)cc2nc1N1CC[C@H](N)C1 [Compound 350]	101 to 1000 nM	83.6%	
CS(=O)(=O)Nc1ccc(Cl)cc1C(=O)N1CCCC[C@H]1c1cc2nc(N3CCC3)cc(N3C[C@H]4C[C@@H]3CN4)n2n1 [Compound 147]	0.1 to 100 nM	98%	
Cc1cn2nc([C@@H]3CC[C@H](C)CN3C(=O)c3cc(Cl)ccc3NS(C)(=O)=O)cc2nc1N1CC[C@@H](O)C1 [Compound 136]	0.1 to 100 nM	100%	
Cc1cn2nc([C@@H]3CCCCN3C(=O)c3cncs3)cc2nc1N1CC[C@H](N)C1 [Compound 269]	0.1 to 100 nM	90%	
CCCn1nccc1C(=O)N1CCCC[C@H]1c1cc2nc(N3CC[C@H](N)C3)c(C)cn2n1 [Compound 300]	0.1 to 100 nM	99%	
Cc1cn2nc([C@@H]3CCCCN3C(=O)c3sccc3Cl)cc2nc1N1CC[C@H](N)C1 [Compound 314]	0.1 to 100 nM	100%	
Cc1cn2nc([C@@H]3CCCCN3C(=O)c3onc(C)c3C)cc2nc1N1CC[C@H](N)C1 [Compound 283]	0.1 to 100 nM	99.8%	
CC1(O)CN(c2cc(N3CCC3)nc3cc([C@@H]4CCCCN4C(=O)c4cc(Cl)ccc4NS(C)(=O)=O)nn23)C1 [Compound 105]	0.1 to 100 nM	100%	
CS(=O)(=O)Nc1ccc(Cl)cc1C(=O)N1CCCC[C@H]1c1cc2nc(N3CCC3)cc(N3CCN(CC(F)(F)F)CC3)n2n1 [Compound 84]	0.1 to 100 nM	100%	
Cc1cn2nc([C@@H]3CCCCN3C(=O)c3nccc4ccccc34)cc2nc1N1CC[C@H](N)C1 [Compound 344]	0.1 to 100 nM	100%	
Cc1cn2nc([C@@H]3CCCCN3C(=O)c3cc(-c4ccccc4)on3)cc2nc1N1CC[C@H](N)C1 [Compound 383]	0.1 to 100 nM	99%	
CC(C)(C)OC(=O)N1CCN(c2cc(C3CC3)nc3cc([C@@H]4CCCCN4C(=O)c4cc(Cl)ccc4NS(C)(=O)=O)nn23)CC1 [Compound 226]	0.1 to 100 nM	100%	
CC#Cc1cc(N2CCOCC2)n2nc([C@@H]3CCCCN3C(=O)c3cc(Cl)ccc3NS(C)(=O)=O)cc2n1 [Compound 110]	0.1 to 100 nM	100%	
Cc1cn2nc([C@@H]3CCCCN3C(=O)c3ccnn3CC(F)(F)F)cc2nc1N1CC[C@H](N)C1 [Compound 401]	0.1 to 100 nM	100%	
Cc1cn2nc([C@@H]3CCCCN3C(=O)c3cccn4c(C)nnc34)cc2nc1N1CC[C@H](N)C1 [Compound 358]	0.1 to 100 nM	100%	
Cc1cc(N2CC(O)C2)nc2cc([C@@H]3CCCCN3C(=O)c3cc(Br)ccc3NS(C)(=O)=O)nn12 [Compound 82]	0.1 to 100 nM	100%	
Cc1cn2nc([C@@H]3CCCCN3C(=O)c3c(Cl)cnn3C(C)C)cc2nc1N1CC[C@H](N)C1 [Compound 382]	0.1 to 100 nM	99%	
Cc1cn2nc([C@@H]3CCCCN3C(=O)c3ocnc3C)cc2nc1N1CC[C@H](N)C1 [Compound 265]	0.1 to 100 nM	100%	
Cc1cn2nc([C@@H]3CCCCN3C(=O)c3ccc4ncsc4c3)cc2nc1N1CC[C@H](N)C1 [Compound 361]	0.1 to 100 nM	88%	

More lines, main results first:

EC50	SMILES	inhibition at 0.5 µM	inhibition at 1 µM
0.1 to 100 nM	CC(=O)Nc1ccc(F)cc1C(=O)N1CCCC[C@H]1c1cc2[nH]c(C)c(C)c(=O)n2n1 [Compound 16]	89%	97%
0.1 to 100 nM	Cc1cn2nc([C@@H]3CCCCN3C(=O)c3cc(Cl)ccc3NS(C)(=O)=O)cc2nc1N1CC(OC(=O)CCC(=O)O)C1 [Compound 144]	99%	
1000 to 10000 nM	Cc1[nH]c2cc([C@@H]3COCCN3C(=O)c3ccccc3NS(C)(=O)=O)nn2c(=O)c1C [Compound 20, N-{2-[3-(5,6-Dimethyl-7-oxo-4,7-dihydro-pyrazolo[1,5-a]pyrimidin-2-yl)-morpholine-4-carbonyl]-phenyl}-methanesulfonamide]	7%	53%
0.1 to 100 nM	CS(=O)(=O)Nc1ccc(Cl)cc1C(=O)N1CCCC[C@H]1c1cc2nc(N3CC(F)C3)cc(N3CCOCC3)n2n1 [Compound 72]	98%	
0.1 to 100 nM	Cc1cc(N2CCC2)nc2cc([C@@H]3CCCCN3C(=O)c3cc(Cl)ccc3NS(C)(=O)=O)nn12 [Compound 42]	100%	
0.1 to 100 nM	Cc1cn2nc([C@@H]3CCCCN3C(=O)c3cc(C)c(F)c(C)c3)cc2nc1N1CC[C@H](N)C1 [Compound 326]	100%	
0.1 to 100 nM	Cc1ccccc1C(=O)N1CCCC[C@H]1c1cc2nc(N3CC[C@H](N)C3)c(C)cn2n1 [Compound 158]	100%	
0.1 to 100 nM	Cc1cn2nc([C@@H]3CCCCN3C(=O)c3cc(Cl)ccc3NS(C)(=O)=O)cc2nc1N1CCC[C@@H](N)C1 [Compound 231]	98%	
0.1 to 100 nM	CS(=O)(=O)Nc1ccc(Cl)cc1C(=O)N1CCCC[C@H]1c1cc2nc(N3CCC3)cc(N3CCC(O)C3)n2n1 (some centres unmarked) [Compound 57]	100%	
0.1 to 100 nM	Cc1ccc(NS(C)(=O)=O)c(C(=O)N2CCCC[C@H]2c2cc3nc(C)c(C)c(N4CCOCC4)n3n2)c1 [Compound 104]	100%	
0.1 to 100 nM	CCc1ccc(NS(C)(=O)=O)c(C(=O)N2CCCC[C@H]2c2cc3[nH]c(C)c(C)c(=O)n3n2)c1 [Compound 116]	98%	
0.1 to 100 nM	Cc1cn2nc([C@@H]3CCCCN3C(=O)c3cccc(C)c3Cl)cc2nc1N1CC[C@H](N)C1 [Compound 334]	100%	
0.1 to 100 nM	CS(=O)(=O)Nc1ccc(Cl)cc1C(=O)N1CCCC[C@H]1c1cc2nc(N3CC(O)C3)cc(N3CC4(COC4)C3)n2n1 [Compound 58]	99%	
0.1 to 100 nM	CS(=O)(=O)Nc1ccc(Cl)cc1C(=O)N1CCCC[C@H]1c1cc2nc(N3CCC3)cc(CN3CCOCC3)n2n1 [Compound 256]	87%	
0.1 to 100 nM	Cc1cn2nc([C@@H]3CCCCN3C(=O)c3cc(Br)ccc3NS(C)(=O)=O)cc2nc1N1CC(O)C1 [Compound 168]	100%	
0.1 to 100 nM	Cc1cn2nc([C@@H]3CCCCN3C(=O)c3cc(N)ccc3NS(C)(=O)=O)cc2nc1N1CC(O)C1 [Compound 192]	100%	
0.1 to 100 nM	Cc1cn2nc([C@@H]3CCCCN3C(=O)c3cc(Cl)ccc3NS(C)(=O)=O)cc2nc1N1CCCN1 [Compound 140]	100%	
0.1 to 100 nM	CS(=O)(=O)Nc1ccc(Cl)cc1C(=O)N1CCCC[C@H]1c1cc2nc(N3CC(N)C3)ccn2n1 [Compound 53]	98%	
0.1 to 100 nM	Cc1ccc(Cl)cc1C(=O)N1CCCC[C@H]1c1cc2nc(N3CC[C@H](N)C3)c(C)cn2n1 [Compound 335]	99%	
0.1 to 100 nM	Cc1ccc(NS(C)(=O)=O)c(C(=O)N2CCCC[C@H]2c2cc3nc(C)cc(N(C)C)n3n2)c1 [Compound 39]	100%	
0.1 to 100 nM	Cc1ccc(N2CCCC2=O)c(C(=O)N2CCCC[C@H]2c2cc3nc(C4CC4)cc(C)n3n2)c1 [Compound 112]	97%	
0.1 to 100 nM	Cc1cc(C(=O)N2CCCC[C@H]2c2cc3nc(N4CC[C@H](N)C4)c(C)cn3n2)[nH]n1 [Compound 262]	100%	
0.1 to 100 nM	Cc1cn2nc([C@@H]3CCCCN3C(=O)c3cc(Cl)ccc3NS(C)(=O)=O)cc2nc1N1C[C@@H]2[C@@H](N)[C@@H]2C1 [Compound 148]	100%	
0.1 to 100 nM	CN(C)[C@H]1CCN(c2cc(N3CCC3)nc3cc([C@@H]4CCCCN4C(=O)c4cc(Cl)ccc4NS(C)(=O)=O)nn23)C1 [Compound 76]	100%	
0.1 to 100 nM	CC(=O)Nc1c(C)c(C)nc2cc([C@@H]3CCCCN3C(=O)c3cc(C)ccc3NS(C)(=O)=O)nn12 [Compound 88]	98%	
